From patent US5194446A, “Compounds having one or more aminosulfaonyloxy radicals useful as pharmaceuticals” (A. H. Robins Company, Incorporated, priority 1991, dated 1993)

Experiments:
[1] = tested on: seventeen (17) days-old chick embryo calvaria; assay: bone resorption in vitro induced by parathyroid hormone (PTH); format: cell-based; conditions: Gallus gallus; for inhibition at 100 µM: compound 10^-4 M; for inhibition at 10 µM: compound 10^-5 M; for inhibition at 1 µM: compound 10^-6 M
Protocol: In order to determine the effectiveness of Formula I compounds in the treatment and/or prevention of osteoporosis in mammalian species an in vitro experimental procedure was utilized to measure bone resorption. The procedure utilized was as follows.
Bone resorption in vitro was measured essentially as outlined by Hall and Kenny (Pharmacology 30:339-347, 1985), except however, seventeen (17) days-old chick embryo calvaria were utilized instead of mice calvaria. Resorption is defined as the amount of calcium (mg/ml) in the medium of vehicle-treated cultures. The effects of the Formula I test compounds were determined by monitoring the effect on calcium concentrations in presence of drug relative to control calcium concentrations at a particular PTH (parathyroid hormone) concentration. The % inhibition of resorption induced by parathyroid hormone by Formula I compounds was calculated as follows: [formula] where Ca (PTH)=Ca (PTH)-Ca (Vehicle medium), and
Ca (PTH+Formula I compound)=Ca (PTH+Formula I compound)

[2] = tested on: adjuvant-induced arthritis test model in rats; assay: adjuvant-induced arthritis test model in rats; format: in vivo, rat (adult, female Lewis)
Protocol: The test utilized to evidence antiarthritic properties of the compounds of Formula I is an adjuvant-induced arthritis test model in rats. Adjuvant arthritis was induced in adult, female Lewis rats as described by Walz et al. J. Pharmac. Exp. Ther. 178:223-231 (1971). Briefly, arthritis was induced in the rats by injection of 0.05 ml of a 1.5% suspension of killed Mycobacterium Butyricum into the right rear foot pad of each rat. Eighteen days later, those rats having a left hind paw volume (measured by mercury displacement up to a reference tatoo mark placed on the leg on Day 0) of 2.4 ml or greater were randomly assigned to treatment groups. The test, reference and control articles (as solutions or suspensions in 0.5% Tween 80) were given by gavage, beginning on Day 18 after adjuvant administration and for 5 days a week (Monday through Friday) through Day 49. Paw volumes were recorded on days 18, 29 and 50 after adjuvant injection. On Day 50, the rats were killed (carbon dioxide) and the uninjected hind limb was x-rayed and scored for bone damage on an arbitrary 1 (no damage) to 10 (maximum damage) scale.
Data collected for hind paw volumes and bone damage were analyzed by the Dunnett's t-test [Dunnett, C. W., J. Amer. Stat. Assoc., 50:1096-1121 (1955)], comparing a positive control group with several treated groups.

[3] = hygroscopicity observation; format: physicochemical; conditions: white crystals

hygroscopicity [3] | Compound | inhibition at 100 µM ([1]; PTH 10^-7 M) [%] | inhibition at 100 µM ([1]; PTH 10^-8 M) [%] | inhibition at 100 µM ([1]; PTH 10^-9 M) [%] | inhibition at 100 µM ([1]; PTH 10^-10 M) [%] | inhibition at 10 µM ([1]; PTH 10^-7 M) [%] | inhibition at 10 µM ([1]; PTH 10^-8 M) [%] | inhibition at 10 µM ([1]; PTH 10^-9 M) [%] | inhibition at 10 µM ([1]; PTH 10^-10 M) [%] | inhibition at 1 µM ([1]; PTH 10^-7 M) [%] | inhibition at 1 µM ([1]; PTH 10^-8 M) [%] | inhibition at 1 µM ([1]; PTH 10^-9 M) [%] | inhibition at 1 µM ([1]; PTH 10^-10 M) [%] | inhibition at 0.1 µM ([1]; compound 10^-7 M, PTH 10^-8 M) [%] | reduction in paw edema, significance ([2]; 1 mg/kg to 100 mg/kg by gavage, Dunnett's t-test) | bone damage score ([2]; 1 (no damage) to 10 (maximum damage) scale, x-ray of uninjected hind limb, Day 50, dosage range 1 mg/kg to 100 mg/kg by gavage, controls scored 8 to 9) | reduction in bone damage, significance ([2]; vs. controls, 1 mg/kg to 100 mg/kg by gavage, Dunnett's t-test)
 | COc1ccccc1OCC(COS(N)(=O)=O)OS(N)(=O)=O (centres unmarked) [Example 3, 1-[(2-Methoxyphenoxy)methyl]-1,2-ethanediol bisulfamate (ester)] | 10 | 40.5 | 66.5 | 100 | 21 | 37 | 86 | 100 | 21 | 29 | 100 | 100 | 23 | significant | 5.4-5.9 | significant
slightly hygroscopic | NS(=O)(=O)OCCN1CCCC1=O [Example 63, 1-[2-[(Aminosulfonyl)oxy]ethyl]-2-pyrrolidinone] |  |  |  |  |  |  |  |  |  |  |  |  |  |  |  | 
